Consider one molecule from EP4663207A1, “LYMPHATIC VESSEL CONTRAST AGENT WITHOUT VENOUS CONTAMINATION” (Inventera Inc., priority 2023, dated 2024).

Read-outs that look alike come from different tables or passages of the source.

Data set [1] in a line: MR relaxivity, phantom at 3 T. The settings on record: 3 T MRI. An excerpt: The r2/r1 ratio serves as a metric for determining whether the nanoparticles are more appropriate for use as T1 MRI contrast agents or T2 MRI contrast agents.
The hydrodynamic diameter of the synthesized INV-001 was 3.9 nm with a surface charge of -3.3 mV. […] The particle size of this contrast agent exceeds the maximum size (2 nm) permissible for intravasation, thereby preventing its entry into blood vessels. Thus, it is theoretically suitable for use as a lymphatic-specific contrast agent that infiltrates the lymphatic vessels without venous contamination when administered intradermally or subcutaneously.
The measured r1 and r2 relaxivity values of NEMO-103 were 2.0 mM^-1s^-1 and 2.3 mM^-1s^-1, respectively (FIGS. 29d and 29e). The r2/r1 ratio, which is an important parameter for T1 MRI contrast agents, was calculated to be 1.15. […] For comparison, the measured r1 and r2 values of Dotarem® were 4.7 mM^-1s^-1 and 5.2 mM^-1s^-1, respectively, resulting in an r2/r1 ratio of 1.11.
To evaluate the T1 MRI performance of the materials from Example 7-7, both the spin-spin relaxivity coefficient (r2) and spin-lattice relaxivity coefficient (r1) were measured, and the r2/r1 ratio was calculated. The r2/r1 ratio is a critical indicator in determining whether a contrast agent is suitable for T1 or T2 MRI.

Another data set concerns knee joint cavity. Nature of the data set: Magnetic resonance arthrography after intra-articular injection in rats. It counts as in vivo, Male Sprague-Dawley rats. The procedure:
Male Sprague-Dawley rats aged 7 weeks or older were anesthetized using a mixture of oxygen and isoflurane gas. INV-002 synthesized in Example 4-1 was then administered into the knee joint, and T1-weighted MRI images were acquired using a fast spin echo sequence.
For example, the T1 signal intensity of the synovial fluid increased from 4,900 (before injection) to 21,000 (after injection). Subsequently, the contrast-to-noise ratios (CNRs) of various anatomical regions within the joint cavity- including the meniscus, joint capsule, cruciate ligament, bone, and fat - were analyzed (FIG. 22F). The CNR was calculated as the difference in average signal intensity between the synovial fluid and each anatomical structure, divided by the standard deviation of the background signal. After INV-002 injection, the CNRs for the meniscus, capsule, cruciate ligament, bone, and fat regions increased by 10-fold, 8.5-fold, 18-fold, 14-fold, 12-fold, […], respectively, compared to pre-injection levels.
The contrast effect of INV-002 was not only stronger than that of the gadolinium-based contrast agent (e.g., Dotarem) but also lasted longer. For quantitative analysis of contrast enhancement, the signal-to-noise ratio (SNR) was measured at two intra-articular locations (indicated by orange arrows), and the average SNR was plotted over time. […]

In a further data set the test system is lymphatic vessels. Nature of the data set: MRL after intradermal injection, Example 2. The class given is in vivo, rats. The settings on record: lower limb, checked with methylene blue. The procedure:
INV-001 was administered intradermally into the interdigital space of the lower limb of animals using a 31-gauge syringe. The injection volume was set at 10, 20, 30, 40, 50, or 75 microliters per animal, corresponding to a human equivalent dose of 2, 4, 6, 8, 10, or 15 mL, respectively.
Prior to MRI acquisition, the animals were anesthetized by inhalation of isoflurane delivered in oxygen at a concentration of 0.5-2%. If necessary, local anesthesia with lidocaine was applied to relieve procedural discomfort.
Baseline MRI images were acquired prior to the administration of the contrast agent. Following the injection of INV-001 prepared in Example 2-1, MRI scans were conducted every 16 minutes for a total of 96 minutes. The imaging sequence used was 3D Time-of-Flight Gradient Echo (3D TOF GRE), with images obtained in axial, sagittal, and coronal planes. […]
Maximum intensity projection (MIP) images were generated from the baseline and post-injection MRI data acquired at 16-minute intervals for 96 minutes. […] The overall image quality, including vessel discontinuity, was assessed using a four-point scale (-, +, ++, +++). Additionally, the presence of dermal backflow and lymph node congestion was evaluated. […]
To confirm the clearance of the injected contrast agent, the administration site was evaluated 24 hours after intradermal injection.

Data set [2] has as its system popliteal lymph node and surrounding lymphatic vessels. As to the kind of experiment: Magnetic resonance lymphangiography (MRL) in rats, Example 1. The class given is in vivo, male Sprague-Dawley (SD) rats. The procedure:
Specifically, all animals used in Example 1 were male Sprague-Dawley (SD) rats weighing 250-300 g. The prepared contrast agent was administered intradermally/subcutaneously into the fourth digits of both hind limbs using a 30-gauge needle. MRL was performed every 16 minutes using a 3D time-of-flight (TOF) sequence with a saturation band on a 9.4-T preclinical MRI scanner.
Gd-DOTA (Gd-DOTA, DOTAREM, Guerbet, Roissy CdG Cedex, France) was used as a Gd-based contrast agent. The Gd-DOTA stock solution, provided at a concentration of 500 mM, was diluted with normal saline before its administration.
The signal-to-noise ratio (SNR) and contrast-to-noise ratio (CNR) of the popliteal lymph node and surrounding lymphatic vessels were analyzed at a dose of 1.125 µmol (75 µL, 15 mM) of INV-001 and Gd-DOTA. Through sequential MRI imaging, dynamic patterns of SNR and CNR and peak time points in the popliteal lymph node and lymphatic vessels were obtained (FIG. 4a). […] In the 1.125 µmol INV-001 group, peak enhancement appeared between 16 and 32 minutes during extended visualization (SNRLN: 23.49 ± 8.64; SNRLV: 16.05 ± 3.52; CNRLN: 15.87 ± 11.05; CNRLV: 12.58 ± 3.37) (FIG. 4b).
Following injection of the contrast agents into the hind limb, magnetic resonance lymphangiography (MRL) was performed using 3D TOF under saturation band conditions to distinguish lymphatic vessels. […] In contrast, in all INV-001 groups, the popliteal lymph node and lymphatic vessels were clearly visualized without venous contamination (FIGs. 5e, 5f, and 5g, yellow arrows). Methylene blue was injected two days after MRL to verify the anatomical structures (FIGs. 5d and 5h).
Qualitative image analyses under various injection conditions were performed using Gd-DOTA and INV-001. In all groups, MRL provided good visualization of the popliteal lymph node and lymphatic vessels (FIG. 6). The qualitative image analysis was conducted according to the criteria shown in Table 1 (Criteria for qualitative score).

A short description of data set [3]: MR relaxivity, phantom at 9.4 T. The procedure:
The hydrodynamic size of INV-001 was measured to be 3.6 nm (FIG. 3b). Subsequently, the T1 and T2 relaxation rates (1/T1 and 1/T2) of INV-001 were measured at 9.4 T (FIG. 3c). The longitudinal and transverse relaxivities (r1 and r2) were calculated at various INV-001 concentrations (0.125, 0.25, 0.5, and 1.0 mM). The r1 was determined to be 2.61 mM^-1·s^-1 and the r2 was 4.33 mM^-1·s^-1 (FIGS. 3d and 3e).

Where [4] appears, read: 1.125 µmol (75 µL, 15 mM), at peak enhancement.

In data set [1], `CNC[C@H](O)[C@@H](O)[C@H](O)[C@H](O)CO.O=C([O-])CN1CCN(CC(=O)[O-])CCN(CC(=O)O)CCN(CC(=O)[O-])CC1.[Gd+3]` [Gd-DOTA] returned a r1 of 4.7 mM⁻¹ s⁻¹. Moreover, the “time of peak SNR post-injection” value in the data set with knee joint cavity (average of two intra-articular locations) amounted to 0.25 h. Also, the “SNR dropped to baseline within” value with knee joint cavity (post-injection) was at most 0.5 h. Moreover, the “enhancement of lymphatic vessels versus veins (venous contamination)” value with lymphatic vessels was “preferentially enhanced veins more than lymphatic vessels”. Also, the qualitative score was 3.2 in data set [2] and 3.8 in data set [2] (2.25 µmol (75 µL, 30 mM)). For the same molecule, the venous contamination entry in data set [2] (1.125 µmol (75 µL, 15 mM), hind limb) is given as “venous contamination was observed”; in data set [2] (2.25 µmol (75 µL, 30 mM), hind limb), “venous contamination was observed”; in data set [2] (doses of 0.45 µmol or higher (discussion)) it was “venous contamination in most animals”. Also, the CNRLN in data set [2] (setting [4]) was 21.61 ± 10.04. Further, in data set [2] (setting [4]), the CNRLV stood at 7.89 ± 5.15. In addition, the SNRLV in data set [2] (setting [4]) came out at 11.15 ± 5.83. Besides, in data set [2] (1.125 µmol (75 µL, 15 mM), at peak enhancement (Gd-DOTA 16 min, INV-001 16-32 min)), the SNRLN is 26.96 ± 10.78. In data set [2] (popliteal lymph node and lymphatic vessels, scans every 16 min), the “time of peak enhancement post-injection” value turned out to be 16 min. Besides, the “T1 contrast enhancement in phantom studies” value in data set [3] is about 3.7 mM⁻¹ s⁻¹.
